# Laboratory results taken from patent US6410596B1 (Insmed Incorporated, priority 2000, dated 2002).
# Assays:
# [1] = tested on: C57BL/ks diabetic (db/db) mice; experiment: Plasma glucose lowering in diabetic db/db mice; assay type: in vivo; details: for Change in Glucose 6 H: 125 mg/kg q.d. oral (0, 24, 48 h), 6 h after initial dose, Table 8 experiment (FIG. 5)
# Description: (§1) Genetically altered obese diabetic mice (designated C57BL/ks diabetic or db/db) were purchased from the Jackson Laboratory (Bar Harbor, Me., USA), and served as experimental animals. Male animals between the ages of 8-9 weeks were employed in the studies described here. Animals were housed (4 mice/cage) under standard laboratory conditions at 22° C. and 50% relative humidity, and were maintained on a diet of Purina rodent chow and water ad libitum. Prior to treatment, blood was collected from the tail vein of each a nimal. Mice that had plasma glucose levels between 350 and 600 mg/dL were used. Each treatment group consisted of eight mice that were distributed so that the mean glucose levels were equivalent in each group at the start of the study. Db/db mice received, orally by gavage: the experimental compound administered at 62.5, 125, or 250 mg/kg/day (unless otherwise noted), or metformin administered at […] for 1-3 days, Test compounds were delivered in a liquid vehicle containing 0.25% (w/v) carboxymethyl-cellulose, 1% (v/v) Tween 60® (polyoxyethylene sorbitan monosterate), and up to 10% (v/v) dimethyl sulfoxide (DMSO) in a volume of 10 ml/kg. Blood was sampled from the tail vein at three hours, six, eight, twenty-four, and thirty hours post-administration (the first administration) of the particular compound in non-fasted conditions. Experiments 3-5 also sampled blood at fifty-four hours post-administration (the first administration) of the particular compound in non-fasted conditions. Blood samples were analyzed for plasma glucose levels. Individual body weights and mean food consumption (each cage) were also measured daily.
# The isolated test substances were prepared as described previously (vide supra). Metformin (1,1-dimethylbiguanide), carboxymethyl cellulose and Tween 60 were purchased from Sigma Chemical Co. (St. Louis, Mo., USA; catalog #'s D-5035, C-4888, and p-1629, respectively). Plasma glucose levels were determined […] using glucose oxidase (Sigma Chemical Co.; Sigma catalog #315). Significant differences between groups (comparing compound-treated to vehicle-treated) were evaluated using analysis of variance and Fisher's post-hoc test. […]
# [2] = Body weights and food consumption in diabetic db/db mice; assay type: in vivo
# Description: as §1
# [3] = 125 mg/kg oral, Table 8 experiment
# [4] = 125 mg/kg oral, Table 10 experiment
# [5] = 125 mg/kg, Table 10/11 experiment
compound,measurement,setting,value
COc1cc(O)cc(CCc2ccccc2)c1CC=C(C)C [Compound E],hypoglycemic effect relative to vehicle,[1]; [3],statistically significant reduction in plasma glucose
same,hypoglycemic effect relative to vehicle,[1]; [4],statistically significant reduction in plasma glucose
same,Change in Glucose 6 H,[1],-2.1 mg/dL
same,Food Intake 0-48 h,"[2]; 125 mg/kg, Table 11",5.7 g/mouse
same,Body weight (mean) 0 h,"[2]; 125 mg/kg, Table 11",39.6 ± 0.3 g/mouse
same,Body weight (mean) 48 hr,"[2]; 125 mg/kg, Table 11",40.2 ± 0.4 g/mouse
same,effect on food intake or body weight,"[2]; 125 mg/kg, Table 8 experiment",absence of any significantly adverse effect on food intake or body weight
same,effect on food intake or body weight,[2]; [5],absence of any significantly adverse effect on food intake or body weight
"COc1cc(O)cc(CCc2ccccc2)c1 [Compound G, 3-hydroxy-5-methoxybibenzene]",hypoglycemic effect relative to vehicle,[1]; [3],statistically significant reduction in plasma glucose
same,Change in Glucose 6 H,[1],35.0 mg/dL
same,effect on food intake or body weight,"[2]; 125 mg/kg, Table 8 experiment",absence of any significantly adverse effect on food intake or body weight
same,effect on food intake or body weight,[2]; [5],absence of any significantly adverse effect on food intake or body weight
"COc1cc(/C=C/c2ccccc2)c(C(=O)O)c(O)c1CC=C(C)C [Compound C, 3-hydroxy-4-(3-methyl-2-butenyl)-5-methoxystilbene-2-carboxylic acid]",hypoglycemic effect relative to vehicle,"[1]; 250 mg/kg oral, FIG. 2 experiment",statistically significant reduction in plasma glucose
same,hypoglycemic effect relative to vehicle,"[1]; 62.5, 125, and 250 mg/kg oral, Tables 4/6 experiment",statistically significant reduction in plasma glucose
same,mean glucose levels declined from the baseline value,"[1]; decline, 125 mg/kg, 54 h after initial dosing, Tables 4/6 experiment",60.4 mg/dL
same,mean glucose levels declined from the baseline values,"[1]; decline, 250 mg/kg (also metformin 250 mg/kg), 54 h after initial dosing, Tables 4/6 experiment",122.0 mg/dL
same,effect on food intake or body weight,"[2]; 62.5 mg/kg, 125 mg/kg, and 250 mg/kg, Tables 4/6 experiment",absence of any significantly adverse effect on food intake or body weight
same,effect on food intake or body weight,"[2]; 250 mg/kg, FIG. 2 experiment",absence of any significantly adverse effect on food intake or body weight
same,food intake versus normal food intake range (5-6 g/day/mouse),"[2]; 250 mg/kg, FIG. 2 experiment",less than that of the normal food intake range
same,food intake versus normal food intake range (5-6 g/day/mouse),"[2]; 250 mg/kg, Tables 4/6 experiment",less than that of the normal food intake range
COc1cc(O)cc(CCc2ccccc2)c1CCC(C)C [Compound F],hypoglycemic effect relative to vehicle,[1]; [4],statistically significant reduction in plasma glucose
same,Food Intake 0-48 h,"[2]; 125 mg/kg, Table 11",5.8 g/mouse
same,Body weight (mean) 0 h,"[2]; 125 mg/kg, Table 11",39.3 ± 0.8 g/mouse
same,Body weight (mean) 48 hr,"[2]; 125 mg/kg, Table 11",39.8 ± 0.8 g/mouse
5-hydroxy-3-methoxy-2-(3-methyl-2-butenyl)stilbene [Compound A],mean glucose levels declined from the baseline values,"[1]; decline, 62.5 mg/kg, 30 h after initial dosing, Tables 4/6 experiment",40.7 mg/dL
same,mean glucose levels declined from the baseline values,"[1]; decline, 125 mg/kg, 30 h after initial dosing, Tables 4/6 experiment",69.7 mg/dL
same,mean glucose levels declined from the baseline values,"[1]; decline, 250 mg/kg (also metformin 250 mg/kg), 30 h after initial dosing, Tables 4/6 experiment",221.4 mg/dL
"COc1cc(/C=C/c2ccccc2)cc(O)c1CC=C(C)C [Compound D, 3-hydroxy-5-methoxy-4-(3-methyl-2-butenyl)stilbene]",hypoglycemic effect relative to vehicle,[1]; [4],statistically significant reduction in plasma glucose
same,Food Intake 0-48 h,"[2]; 125 mg/kg, Table 11",5.7 g/mouse
same,Body weight (mean) 0 h,"[2]; 125 mg/kg, Table 11",39.3 ± 0.6 g/mouse
same,Body weight (mean) 48 hr,"[2]; 125 mg/kg, Table 11",39.7 ± 0.7 g/mouse
"CN(C)C(=N)N=C(N)N [Metformin, 1,1-dimethylbiguanide, reference compound]",Food Intake 0-48 h,"[2]; 250 mg/kg, Table 5",5.1 g/mouse
same,Body weight (mean) 0 h,"[2]; 250 mg/kg, Table 5",37.3 ± 0.7 g/mouse
same,Body weight (mean) 48 hr,"[2]; 250 mg/kg, Table 5",37.2 ± 0.6 g/mouse
